Laboratory results: publication PMC3139024 (Bioorganic & medicinal chemistry letters, 2011)
Values belong to the compound of their own block, whether it stands above or below them.

What was measured:
HsPDF = target: T1, HsPDF (Homo sapiens, UniProt Q9HBH1); assay: HsPDF inhibition, potency and selectivity profiling; type: biochemical; conditions: for inhibition at 100 µM: read-out: HsPDF (%I); for HsPDF (%I): % Inhibition at 100 μM, average of duplicates, 100: ≥100 %I, 0: ≤0 %I
T1 sequence (Q9HBH1 40-243): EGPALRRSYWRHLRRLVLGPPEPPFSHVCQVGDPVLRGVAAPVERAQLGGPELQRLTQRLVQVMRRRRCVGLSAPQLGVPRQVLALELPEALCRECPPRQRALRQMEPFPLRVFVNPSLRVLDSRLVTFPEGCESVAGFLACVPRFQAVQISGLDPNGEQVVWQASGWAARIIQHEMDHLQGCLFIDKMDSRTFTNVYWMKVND

EcPDF = EcPDF (Escherichia coli, UniProt P0A6K3); assay: EcPDF inhibition, potency and selectivity profiling; type: biochemical; conditions: for EcPDF (%I): % Inhibition at 100 μM, average of duplicates, 100: ≥100 %I, 0: ≤0 %I
HL-60/RV+ = assay: cytotoxicity profile, HL-60/RV+; type: cell-based; conditions: Homo sapiens, HL-60, read-out: Cytotoxicity IC50, HL-60/RV+
HEK293 = assay: cytotoxicity profile, HEK293; type: cell-based; conditions: Homo sapiens, HEK293, read-out: Cytotoxicity IC50, HEK293
Y79 = assay: cytotoxicity profile, Y79; type: cell-based; conditions: Homo sapiens, Y79, read-out: Cytotoxicity IC50, Y79
Meso47 = assay: cytotoxicity profile, Meso47; type: cell-based; conditions: read-out: Cytotoxicity IC50, Meso47
[1] = tested on: panel of 15 bacterial strains; assay: organism not typed; type: cell-based
metalloproteases tested = assay: activity toward the metalloproteases tested; type: biochemical; conditions: Suppl. Table 2
[2] = tested on: panel of nine well characterized cancer cell lines; assay: cytotoxicity profile across panel of nine cancer cell lines; type: cell-based; conditions: read-out: cytotoxicity IC50 range across cancer cell lines
HL-60 tumors = assay: mouse xenograft model using HL-60 cells; type: in vivo; conditions: dose of 15 mg/kg, pilot study
MMP-1 = target: T2, MMP-1 (Homo sapiens, UniProt P03956); assay: MMP-1 inhibition, metalloprotease selectivity panel; type: biochemical; conditions: for MMP-1 (%I): % Inhibition at 100 μM, average of duplicates, 100: ≥100 %I, 0: ≤0 %I
T2 sequence (P03956 100-469): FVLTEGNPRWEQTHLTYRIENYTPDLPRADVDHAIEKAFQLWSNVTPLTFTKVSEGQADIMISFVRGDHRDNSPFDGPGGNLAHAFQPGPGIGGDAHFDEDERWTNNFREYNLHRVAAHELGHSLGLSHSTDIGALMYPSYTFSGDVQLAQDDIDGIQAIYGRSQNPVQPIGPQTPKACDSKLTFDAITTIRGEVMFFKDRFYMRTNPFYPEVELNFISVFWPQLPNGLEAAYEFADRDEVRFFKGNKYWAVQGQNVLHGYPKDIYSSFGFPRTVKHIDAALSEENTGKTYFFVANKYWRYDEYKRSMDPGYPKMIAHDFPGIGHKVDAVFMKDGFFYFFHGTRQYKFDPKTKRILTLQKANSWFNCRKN

APN = APN (Homo sapiens, UniProt P15144); assay: APN inhibition, metalloprotease selectivity panel; type: biochemical; conditions: % Inhibition at 100 μM, average of duplicates; 100: ≥100 %I; 0: ≤0 %I
CWR22 = assay: cytotoxicity profile, CWR22; type: cell-based; conditions: CWR22, read-out: Cytotoxicity IC50, CWR22

EcPDF, sequence (P0A6K3 whole entry): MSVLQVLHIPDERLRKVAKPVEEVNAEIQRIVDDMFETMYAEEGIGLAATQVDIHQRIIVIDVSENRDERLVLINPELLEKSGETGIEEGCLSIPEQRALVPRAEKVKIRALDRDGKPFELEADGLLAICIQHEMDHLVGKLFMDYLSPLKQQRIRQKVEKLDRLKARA
APN, sequence (P15144 whole entry, species assumed): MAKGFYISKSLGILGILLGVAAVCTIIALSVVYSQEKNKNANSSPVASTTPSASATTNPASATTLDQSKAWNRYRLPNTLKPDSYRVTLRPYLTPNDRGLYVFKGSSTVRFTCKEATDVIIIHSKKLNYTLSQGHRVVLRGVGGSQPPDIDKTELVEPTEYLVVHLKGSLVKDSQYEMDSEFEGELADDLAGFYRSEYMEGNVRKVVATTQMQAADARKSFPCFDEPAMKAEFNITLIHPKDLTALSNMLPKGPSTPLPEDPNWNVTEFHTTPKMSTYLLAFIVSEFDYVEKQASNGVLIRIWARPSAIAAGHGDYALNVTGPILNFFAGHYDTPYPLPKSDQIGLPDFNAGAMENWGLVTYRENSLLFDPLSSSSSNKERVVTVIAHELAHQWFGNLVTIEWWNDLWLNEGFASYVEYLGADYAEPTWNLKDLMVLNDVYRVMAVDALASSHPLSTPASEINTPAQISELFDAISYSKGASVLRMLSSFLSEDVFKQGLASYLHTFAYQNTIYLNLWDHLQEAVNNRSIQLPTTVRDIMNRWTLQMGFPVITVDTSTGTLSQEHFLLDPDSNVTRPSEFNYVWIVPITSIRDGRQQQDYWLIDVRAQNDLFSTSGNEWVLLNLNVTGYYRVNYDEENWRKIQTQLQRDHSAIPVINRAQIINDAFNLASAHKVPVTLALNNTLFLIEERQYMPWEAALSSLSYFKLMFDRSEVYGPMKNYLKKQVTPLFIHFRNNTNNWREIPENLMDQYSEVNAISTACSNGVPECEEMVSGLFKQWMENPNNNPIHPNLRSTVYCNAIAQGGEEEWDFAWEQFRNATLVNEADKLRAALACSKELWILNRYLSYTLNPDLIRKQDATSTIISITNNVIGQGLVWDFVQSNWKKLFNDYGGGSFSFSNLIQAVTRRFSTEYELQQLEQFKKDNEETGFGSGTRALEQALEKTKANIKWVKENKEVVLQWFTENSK

Compound: O=C1C(=O)c2c(C(=O)c3ccccc3)coc2C(Cl)=C1Cl [Compd 5]
- inhibition at 100 µM (HsPDF): ≥ 100%
- IC50 (EcPDF): > 100 µM
- IC50 (HL-60/RV+): ≥ 100 µM
- IC50 (HEK293): ≥ 100 µM
- IC50 (Y79): ≥ 100 µM
- IC50 (Meso47): ≥ 100 µM
- MIC [1]: > 64 µg/mL

Compound: COc1ccc(C(=O)c2coc3c2C(=O)C(=O)c2ccccc2-3)cc1OC [Compd 33]
- activity toward any of the metalloproteases tested (metalloproteases tested): no activity

Compound: COc1ccc(C(=O)c2coc3c2C(=O)C(=O)c2ccccc2-3)cc1 [Compd 32]
- activity toward any of the metalloproteases tested (metalloproteases tested): no activity

Compound: COc1cc(C(=O)c2coc3c2C(=O)C(=O)C(Br)=C3Br)cc(OC)c1OC [Compd 27]
- inhibition at 100 µM (HsPDF): ≥ 100%
- EcPDF (IC50, μM) (EcPDF): no significant activity
- IC50 (EcPDF): > 100 µM
- IC50 [2]: 2.8 to 37 µM
- delay of growth of HL-60 tumors (HL-60 tumors): up to 40%

Compound: COc1cc(C(=O)c2coc3c2C(=O)C(=O)C(Cl)=C3Cl)cc(OC)c1OC [Compd 24]
- inhibition at 100 µM (HsPDF): ≥ 100%
- IC50 (EcPDF): > 100 µM
- IC50 (Meso47): ≥ 100 µM

Compound: COc1ccc(C(=O)c2coc3c2C(=O)C(=O)C(Cl)=C3Cl)cc1 [Compd 22]
- IC50 (EcPDF): > 100 µM
- EcPDF (%I) (EcPDF): no significant activity
- MMP-1 (%I) (MMP-1): no significant activity
- inhibition at 100 µM (MMP-1; read-out: MMP-1 (%I)): ≤ 0%
- IC50 (Meso47): ≥ 100 µM
- MIC [1]: > 64 µg/mL

- inhibition at 100 µM (HsPDF): ≥ 100%
Compound: COc1ccc(C(=O)c2coc3c2C(=O)C(=O)C(Cl)=C3Cl)cc1OC [Compd 23]
- IC50 (HL-60/RV+): ≥ 100 µM
- IC50 (HEK293): ≥ 100 µM

Compound: O=C1C=Cc2occ(C(=O)c3ccccc3)c2C1=O [Compd 16]
- HsPDF (%I) (HsPDF): completely inhibited
- inhibition at 100 µM (HsPDF): ≥ 100%
- IC50 (EcPDF): > 100 µM
- EcPDF (%I) (EcPDF): low activity
- APN (%I) (APN): low activity
- MMP-1 (%I) (MMP-1): low activity

Compound: COc1ccc(C(=O)c2coc3c2C(=O)C(=O)C(Cl)=C3)cc1 [Compd 20]
- IC50 (EcPDF): > 100 µM
- IC50 (HEK293): ≥ 100 µM

Compound: COc1ccc(C(=O)c2coc3c2C(=O)C(=O)C(Br)=C3Br)cc1OC [Compd 26]
- inhibition at 100 µM (HsPDF): ≥ 100%
- IC50 (EcPDF): > 100 µM
- IC50 (CWR22): ≥ 100 µM
- IC50 (HEK293): ≥ 100 µM
- IC50 (Y79): ≥ 100 µM
- IC50 (Meso47): ≥ 100 µM

Compound: COc1ccc(C(=O)c2coc3c2C(=O)C(=O)C=C3Br)cc1 [Compd 21]
- inhibition at 100 µM (HsPDF): ≥ 100%
- IC50 (EcPDF): > 100 µM
- IC50 (Meso47): ≥ 100 µM

Compound: COc1ccc(C(=O)c2coc3c2C(=O)C(=O)C=C3Cl)cc1 [Compd 19]
- inhibition at 100 µM (HsPDF): ≥ 100%
- IC50 (EcPDF): > 100 µM
- IC50 (Meso47): ≥ 100 µM

Compound: COc1ccc(C(=O)c2coc3c2C(=O)C(=O)C=C3)cc1 [Compd 17]
- HsPDF (%I) (HsPDF): completely inhibited
- IC50 (EcPDF): > 100 µM
- EcPDF (%I) (EcPDF): low activity
- APN (%I) (APN): low activity
- MMP-1 (%I) (MMP-1): low activity
- IC50 (Meso47): ≥ 100 µM

Compound: COc1cc(C(=O)c2coc3c2C(=O)C(=O)c2ccccc2-3)cc(OC)c1OC [Compd 34]
- activity toward any of the metalloproteases tested (metalloproteases tested): no activity

Compound: COc1ccc(C(=O)c2coc3c2C(=O)C(=O)C(Br)=C3Br)cc1 [Compd 25]
- inhibition at 100 µM (HsPDF): ≥ 100%
- IC50 (EcPDF): > 100 µM
- IC50 (HL-60/RV+): ≥ 100 µM
- IC50 (HEK293): ≥ 100 µM
- IC50 (Meso47): ≥ 100 µM

Compound: CCCCC[C@H](CC(=O)NO)C(=O)N[C@H](C(=O)N1CCC[C@H]1CO)C(C)C [Compd 1, actinonin, reference compound]
- antibacterial activity, number of strains ([1]; panel of 15 bacterial strains): active in 12 out of the 15 strains tested
